{"source": "patent US20170246137A1", "about": "“SULFESTROL FOR TREATING CANCER” (CHAMAELEO PHARMA BVBA, priority 2012, published 2017)", "key": {"[1]": {"assay": "In vitro metabolism in human liver microsomes (STS and CYP)", "assay_type": "in vitro ADME", "set-up": "Clint: unit not given here", "conditions": "for Clint / Contribution to metabolism / Half-life: 5 μM", "method": "In vitro metabolism pathways of DES, Mono-Sulfestrol and Di-Sulfestrol in human liver microsomes were investigated.\nSpecial emphasis was put on desulfatation by steroid sulfatase (STS) and oxidation by cytochrome P (CYP) metabolism. Liver microsomes (Celsis in vitro Technologies) were used at a concentration of 0.5 mg/ml in a volume of 600 μl phosphate buffer pH 7.4. Estrone-3-sulfate was used as positive control.\n5 μM of each compound (test and control compound) was added to the liver microsomes and the mixture was incubated at 37° C. for 5, 10, 20, 30, 50, 90 and 120 minutes. After incubation, aliquots of 45 μl were taken which were subsequently quenched with 150 μl ice cold methanol. Aliquots were incubated ≧1 h at −20° C. for protein precipitation. After precipitation, samples were centrifuged and remaining supernatant was used for analysis with LC-MS/MS. Half life of the compounds, speed of metabolism or intrinsic clearance (Clint), and contribution to metabolism of CYP and STS metabolism were calculated based on the data obtained at each time point."}, "[2]": {"assay": "Concentration of Mono-Sulfestrol in pooled plasma samples, LC-UV quantification", "assay_type": "in vivo, male Sprague Dawley rats", "conditions": "10 mg/kg of the labelled compound, rat, pooled 0.5-8 hrs", "method": "The concentration of Mono-Sulfestrol in the pooled samples described in Example 6 was quantified by LC-UV quantification.\nA calibration standard solution was prepared as 10,000 ng/mL by adding an appropriate amount of Mono-Sulfestrol into 20% acetonitrile/0.1% formic acid in water. The peak area of the standard solution and the sample were measured with the wavelength set at 200 to 360 nm. The concentration levels of Mono-Sulfestrol were estimated using peak area (Area) of the standard and unknown samples and concentration of the standard (Concstd) by the following equation:\nAreaunknown/Areastd=Concunknown/Concstd\nConcunknown=Concstd·(Areaunknown/Areastd)"}, "[3]": {"assay": "Metabolites in plasma after oral and intravenous administration, LC-MS/MS", "experimental": "Metabolites were identified after oral and intravenous administration of the compounds.\nEach group consisted of three rats, giving a total of 12 animals. Compounds were dosed at 10 mg/kg for both oral and intravenous administration. A 0.9% saline solution was used as vehicle for oral and intravenous administration.\nPrior to intravenous administration, the solution was filtered through a 0.22 μM filter. Oral dosing was performed using a oral gavage. Tail vein injection was used for intravenous administration.\nAt 0.5, 1, 2, 4, 6 and 8 hrs post administration, 0.25 ml blood was drawn from the animals and immediately transferred to prechilled microcentrifuge tubes containing 4 μl of K2-EDTA to prevent coagulation. Plasma was obtained by centrifugation of the plasma and stored at −70° C. until analysis. Plasma drawn from each individual rat was pooled according to the following schedule:\nThe pooled samples were analyzed using LC-MS/MS and the relative percentage of each metabolite in the pooled sample was measured on the basis of the mass spectrometric peak areas of the parent and its metabolites in the plasma."}, "[4]": {"conditions": "+ NADPH + 667-Coumate (STS inactive, CYP active)"}, "[5]": {"conditions": "nothing added (STS active, CYP inactive)"}}, "note": "Where “and” joins values, the source holds several entries; their conditions need not be identical. Equal values may be shown once.", "data": [{"substance": "4-(4-(4-oxidophenyl)hex-3-en-3-yl)phenyl sulfate [Mono-Sulfestrol]", "values": [{"measurement": "metabolism pathway in human liver microsomes (in words)", "setting": "[1]", "result": "metabolized by both STS and CYP enzymes"}, {"measurement": "Clint", "setting": "[1]; [4]", "result": 51}, {"measurement": "Contribution to metabolism", "setting": "[1]; [4]", "result": 44, "unit": "%"}, {"measurement": "Half-life", "setting": "[1]; [4]", "result": 27, "unit": "min"}, {"measurement": "Clint", "setting": "[1]; [5]", "result": 22}, {"measurement": "Contribution to metabolism", "setting": "[1]; [5]", "result": 19, "unit": "%"}, {"measurement": "Half-life", "setting": "[1]; [5]", "result": 63, "unit": "min"}, {"measurement": "Mono-Sulfestrol concentration in pooled plasma sample", "setting": "[2]; intravenous", "result": "630.0 ng/ml and 1.5 μM"}, {"measurement": "Mono-Sulfestrol concentration in pooled plasma sample", "setting": "[2]; oral", "result": "1150.6 ng/ml and 2.7 μM"}, {"measurement": "metabolic fate in rat plasma (in words)", "setting": "[3]; 10 mg/kg oral and intravenous", "result": "undergoes minimal metabolic processing"}, {"measurement": "Relative Abundance", "setting": "[3]; pooled rat plasma after Mono-Sulfestrol 10 mg/kg IV", "result": "IV: 86.99%"}, {"measurement": "Relative Abundance", "setting": "[3]; pooled rat plasma after Mono-Sulfestrol 10 mg/kg PO", "result": "PO: 91.91%"}]}]}
